Among the test systems are HS 578T breast; OVCAR-4 ovarian; SK-MEL-28 melanoma; HOP-92 NSCLC; CCRF-CEM leukemia; OVCAR-3 ovarian; ACHN renal; MALME-3M melanoma; NCI-H460 lung; NCI/ADR-RES ovarian.
Assay in all cases: DTP human tumour cell line panel, 48 h

Each structure is given as a SMILES string.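 96-well plates; 48 h exposure; 5 concentrations. Endpoints by linear interpolation between flanking doses. Not reached: highest tested concentration assigned. The concentration for 50% growth inhibition is given as GI50. TGI: concentration producing complete growth inhibition.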 Where a SMILES comes first, the peptide text is derived from it. The star is where a group is joined. Trt = c1ccc(C(c2ccccc2)(c2ccccc2)*)cc1; Cbz = O=C(OCc1ccccc1)*

Regarding `CCCN1CCC=C(c2ccc(Nc3nc(Nc4ccccc4C(N)=O)c4cc[nH]c4n3)c(C)c2)C1`, the GI50 in the assay on HS 578T breast is more than 17.8 µM; in the assay on OVCAR-4 ovarian, more than 14.6 µM; with SK-MEL-28 melanoma it was more than 23.8 µM; in the assay on HOP-92 NSCLC, 0.158 µM; in the assay on CCRF-CEM leukemia it was 3.32 µM; in the assay on OVCAR-3 ovarian, 17.9 µM. For the same compound, the GI50 was 15.4 µM in the assay with ACHN renal, 5.35 µM in the assay with MALME-3M melanoma, 2.46 µM in the assay on NCI-H460 lung and more than 22.4 µM with NCI/ADR-RES ovarian. In addition, the TGI is more than 25 µM in the assay on HS 578T breast; more than 25 µM in the assay on OVCAR-4 ovarian; more than 25 µM in the assay on SK-MEL-28 melanoma; 2.04 µM in the assay with HOP-92 NSCLC; more than 25 µM in the assay with CCRF-CEM leukemia; more than 25 µM with OVCAR-3 ovarian. Moreover, the TGI with ACHN renal, with MALME-3M melanoma, with NCI-H460 lung and with NCI/ADR-RES ovarian was more than 25 µM throughout.

Take `Cc1cc(Nc2nc(-c3ccncc3)nc3ccccc23)n[nH]1`: the GI50 was 1.36 µM with HS 578T breast; 15.5 µM in the assay on OVCAR-4 ovarian; 88.8 µM in the assay on SK-MEL-28 melanoma; 4.39 µM with HOP-92 NSCLC; 25.2 µM in the assay on CCRF-CEM leukemia; 9.26 µM in the assay on OVCAR-3 ovarian. Moreover, the GI50 in the assay on ACHN renal is 1.06 µM; in the assay with MALME-3M melanoma it was more than 100 µM; in the assay on NCI-H460 lung, 6.18 µM; in the assay on NCI/ADR-RES ovarian, 11.1 µM. Besides, the total growth inhibition concentration (TGI) in the assay with HS 578T breast is 7.47 µM; in the assay with OVCAR-4 ovarian it was more than 100 µM; with SK-MEL-28 melanoma, more than 100 µM; in the assay on HOP-92 NSCLC, more than 100 µM; in the assay with CCRF-CEM leukemia, more than 100 µM; in the assay on OVCAR-3 ovarian, more than 100 µM. The TGI with ACHN renal, in the assay on MALME-3M melanoma, in the assay on NCI-H460 lung and in the assay on NCI/ADR-RES ovarian was more than 100 µM in each case.

For `COc1cc(-c2cc(=O)c3c(O)c(OC)c(OC)c(OC)c3o2)cc(OC)c1OC`, the total growth inhibition concentration (TGI) in the assay with HS 578T breast was more than 20.7 µM; in the assay with OVCAR-4 ovarian it was more than 100 µM; with SK-MEL-28 melanoma, more than 100 µM; with HOP-92 NSCLC it was 27.3 µM; in the assay with CCRF-CEM leukemia, more than 100 µM; in the assay on OVCAR-3 ovarian, more than 100 µM. The TGI with ACHN renal, in the assay on MALME-3M melanoma, with NCI-H460 lung and with NCI/ADR-RES ovarian was more than 100 µM in each case.

Take `COC(=O)C(CSC(c1ccccc1)(c1ccccc1)c1ccccc1)NC(=O)C(CC(N)=O)NC(=O)OCc1ccccc1` (stereo not drawn) (Cbz-Asn-Cys(Trt)-OMe; configuration not given here): the GI50 was 4.55 µM with HS 578T breast; 7.64 µM in the assay with OVCAR-4 ovarian; 3.42 µM with SK-MEL-28 melanoma; 2.64 µM with HOP-92 NSCLC; 3.33 µM in the assay on CCRF-CEM leukemia; 1.78 µM with OVCAR-3 ovarian. The GI50 with ACHN renal is 5.11 µM; with MALME-3M melanoma, 2.21 µM; with NCI-H460 lung, 4.5 µM; in the assay with NCI/ADR-RES ovarian, 4.48 µM. Also, the TGI with HS 578T breast stood at 26.5 µM; with OVCAR-4 ovarian it was 84.8 µM; with SK-MEL-28 melanoma, 15.4 µM; with HOP-92 NSCLC, 14.9 µM; in the assay on CCRF-CEM leukemia, 19.7 µM; in the assay with OVCAR-3 ovarian, 4.67 µM. In addition, the TGI was 22.4 µM in the assay with ACHN renal, 12.1 µM in the assay on MALME-3M melanoma, 15.8 µM with NCI-H460 lung and 20.8 µM with NCI/ADR-RES ovarian.

Turning to `Cc1c(Cl)c(C)c(Cc2c(C)c(Cl)c(C)c(Cl)c2O)c(O)c1Cl`, the GI50 is 2.71 µM in the assay with HS 578T breast; 2.99 µM in the assay with OVCAR-4 ovarian; 3.14 µM in the assay with SK-MEL-28 melanoma; 1.16 µM in the assay with HOP-92 NSCLC; 2.57 µM with CCRF-CEM leukemia; 3.28 µM with OVCAR-3 ovarian. The GI50 is 2.32 µM in the assay on ACHN renal, 2.33 µM in the assay on MALME-3M melanoma, 2.43 µM in the assay on NCI-H460 lung and 3.09 µM with NCI/ADR-RES ovarian. Further, the TGI in the assay with HS 578T breast is 9.55 µM; in the assay with OVCAR-4 ovarian, 9.97 µM; in the assay on SK-MEL-28 melanoma it was 14 µM; in the assay on HOP-92 NSCLC, 4.74 µM; in the assay on CCRF-CEM leukemia it was 12.6 µM; with OVCAR-3 ovarian, 11.2 µM. For the same compound, the TGI in the assay with ACHN renal came to 6.88 µM; in the assay with MALME-3M melanoma it was 5.97 µM; with NCI-H460 lung it was 10.2 µM; in the assay on NCI/ADR-RES ovarian, 10.2 µM.

`COc1cccc2c1cc1c3c(cc4c(c32)OCO4)C(=O)N1`: the GI50 in the assay with HS 578T breast is 2.33 µM; with OVCAR-4 ovarian, 2.61 µM; in the assay with SK-MEL-28 melanoma, 13.1 µM; in the assay on HOP-92 NSCLC, 1.71 µM; in the assay on CCRF-CEM leukemia it was 5.15 µM; in the assay on OVCAR-3 ovarian, 2.5 µM. Further, the GI50 in the assay on ACHN renal was 3.76 µM; in the assay on MALME-3M melanoma, 6.5 µM; in the assay with NCI-H460 lung, 3.68 µM; with NCI/ADR-RES ovarian, 2.71 µM. Besides, the concentration for total growth inhibition (TGI) in the assay on HS 578T breast is 6.82 µM; in the assay on OVCAR-4 ovarian it was 7.26 µM; in the assay with SK-MEL-28 melanoma it was 67.2 µM; with HOP-92 NSCLC, 6.98 µM; in the assay with CCRF-CEM leukemia, more than 100 µM; with OVCAR-3 ovarian, 5.58 µM. Besides, the TGI in the assay with ACHN renal was 15.4 µM; in the assay on MALME-3M melanoma, more than 100 µM; in the assay with NCI-H460 lung it was 20.4 µM; in the assay with NCI/ADR-RES ovarian, 7.46 µM.

Take `C=CC(C)(O)CC/C=C(\CO)C(=O)OC1C(C)OC(O[C@](C)(C=C)CC/C=C(\CO)C(=O)O[C@H]2C[C@@]3(C(=O)OC4OC(CO)C(O)C(O)C4OC4OC(C)C(OC5OC(CO)C(O)C5O)C(OC5OC(CO)C(O)C(O)C5O)C4O)C(CC2(C)C)C2=CCC4[C@@]5(C)CC[C@H](OC6OC(COC7OC(C)C(O)C(O)C7OC7OCC(O)C(O)C7O)C(O)C(O)C6NC(C)=O)C(C)(C)C5CC[C@@]4(C)[C@]2(C)C[C@H]3O)C(O)C1O` (stereo not given in full): the GI50 in the assay on HS 578T breast is 0.989 µM; with OVCAR-4 ovarian it was 0.11 µM; with SK-MEL-28 melanoma it was 0.0852 µM; in the assay with HOP-92 NSCLC, 0.0736 µM; with CCRF-CEM leukemia, 0.125 µM; in the assay on OVCAR-3 ovarian, 0.0947 µM. In addition, the GI50 with ACHN renal was 0.0771 µM; in the assay on MALME-3M melanoma, 0.261 µM; with NCI-H460 lung, 3.72 µM; in the assay on NCI/ADR-RES ovarian, 2.68 µM. Also, the total growth inhibition concentration (TGI) in the assay with HS 578T breast was 7.16 µM; in the assay with OVCAR-4 ovarian it was 0.47 µM; with SK-MEL-28 melanoma it was 0.248 µM; with HOP-92 NSCLC, 0.794 µM; in the assay with CCRF-CEM leukemia it was 7.55 µM; in the assay on OVCAR-3 ovarian, 0.344 µM. Further, the TGI with ACHN renal turned out to be 0.209 µM; in the assay with MALME-3M melanoma it was 1.01 µM; in the assay on NCI-H460 lung, 9.79 µM; in the assay on NCI/ADR-RES ovarian, 7.84 µM.

The values above are taken from PubChem BioAssay (NCI).
